Target: human TRPA1 (Homo sapiens (Human), UniProt O75762)
Test: FLIPR Tetra calcium influx assay, block of cinnamaldehyde-induced calcium influx in CHO cells expressing TRPA1 (human)
Assay type: cell-based
Conditions: 20 min compound incubation, 75 uM cinnamaldehyde (~EC80), Hill coefficient fixed to 1.5, read-out: hTRPA1 AUC IC50
In short: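 CHO cells loaded with calcium dye, preincubated with compounds 20 min at room temperature in HBSS/20 mM HEPES pH 7.4 with 0.02% BSA. Channels activated by ~EC80 cinnamaldehyde (75 uM human, 45 uM rat); block of calcium influx read on FLIPR Tetra, IC50 fitted with fixed Hill coefficient.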

Chain of human TRPA1 (O75762 whole entry): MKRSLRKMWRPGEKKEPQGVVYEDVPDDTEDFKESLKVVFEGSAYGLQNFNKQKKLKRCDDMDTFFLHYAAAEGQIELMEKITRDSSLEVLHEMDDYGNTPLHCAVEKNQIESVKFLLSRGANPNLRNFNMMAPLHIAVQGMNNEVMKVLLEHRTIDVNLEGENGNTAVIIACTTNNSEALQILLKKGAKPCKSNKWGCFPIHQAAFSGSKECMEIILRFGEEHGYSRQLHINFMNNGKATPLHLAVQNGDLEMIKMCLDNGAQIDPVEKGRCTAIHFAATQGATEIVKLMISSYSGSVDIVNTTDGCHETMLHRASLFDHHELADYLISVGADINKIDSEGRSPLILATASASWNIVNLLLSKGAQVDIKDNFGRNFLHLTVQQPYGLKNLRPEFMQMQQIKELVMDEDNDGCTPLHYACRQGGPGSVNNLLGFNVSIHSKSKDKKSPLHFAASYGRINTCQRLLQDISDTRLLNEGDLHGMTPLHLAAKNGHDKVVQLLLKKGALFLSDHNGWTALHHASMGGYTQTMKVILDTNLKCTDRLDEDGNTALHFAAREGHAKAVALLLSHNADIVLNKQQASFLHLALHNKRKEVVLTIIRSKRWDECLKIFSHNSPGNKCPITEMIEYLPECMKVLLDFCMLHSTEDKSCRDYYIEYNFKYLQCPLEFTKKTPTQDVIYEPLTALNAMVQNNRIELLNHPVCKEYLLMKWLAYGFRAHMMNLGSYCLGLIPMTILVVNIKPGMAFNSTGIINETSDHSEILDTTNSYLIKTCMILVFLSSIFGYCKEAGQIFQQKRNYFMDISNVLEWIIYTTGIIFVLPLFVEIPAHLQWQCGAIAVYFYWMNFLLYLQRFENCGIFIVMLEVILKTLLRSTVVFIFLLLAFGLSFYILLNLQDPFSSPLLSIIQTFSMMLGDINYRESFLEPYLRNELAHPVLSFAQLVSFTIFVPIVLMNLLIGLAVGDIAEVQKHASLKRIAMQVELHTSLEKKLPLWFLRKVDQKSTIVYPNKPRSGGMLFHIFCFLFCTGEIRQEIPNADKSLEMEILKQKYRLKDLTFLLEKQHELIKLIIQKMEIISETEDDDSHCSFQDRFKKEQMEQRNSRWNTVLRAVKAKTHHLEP

IC50 [nM] | SMILES
23 | COc1nn(-c2ccc(C(F)(F)F)cc2)cc1CNC(=O)[C@@H]1C[C@@H](F)CN1S(=O)(=O)c1cccc(F)c1 [Example 134, (2S,4R)-4-fluoro-1-[(3-fluorobenzene)sulfonyl]-N-([3-methoxy-1-[4-(trifluoromethyl)phenyl]-1H-pyrazol-4-yl]methyl)pyrrolidine-2-carboxamide]
99 | O=C(NCc1cc(N2CCC3(CC2)CC3)c(F)cn1)[C@@H]1C[C@@H](F)CN1S(=O)(=O)c1ccc(F)cc1 [Example 129, (2S,4R)—N-[[4-(6-azaspiro[2.5]octan-6-yl)-5-fluoro-2-pyridyl]methyl]-4-fluoro-1-(4-fluorophenyl)sulfonyl-pyrrolidine-2-carboxamide]
31 | O=C(NCc1cc(F)cc(-c2ccc(C(F)F)cn2)c1)[C@@H]1C[C@@H](F)CN1S(=O)(=O)c1ccc(F)cc1 [Example 75, (2S,4R)—N-[[3-[5-(difluoromethyl)-2-pyridyl]-5-fluoro-phenyl]methyl]-4-fluoro-1-(4-fluorophenyl)sulfonyl-pyrrolidine-2-carboxamide]
163 | Cc1nc(CNC(=O)[C@@H]2C[C@@H](F)CN2S(=O)(=O)c2ccc(F)cc2)cc(-c2ccc(C(F)(F)F)nc2)n1 [Example 152, (2S,4R)-4-fluoro-1-(4-fluorophenylsulfonyl)-N-((2-methyl-6-(6-(trifluoromethyl)pyridin-3-yl)pyrimidin-4-yl)methyl)pyrrolidine-2-carboxamide]
68 | O=C(NCc1cc(-c2ccc(C(F)(F)F)nc2)ncc1F)[C@@H]1C[C@@H](F)CN1S(=O)(=O)c1ccc(F)cc1 [Example 141, (2S,4R)-4-fluoro-N-((5-fluoro-6′-(trifluoromethyl)-2,3′-bipyridin-4-yl)methyl)-1-(4-fluorophenylsulfonyl)pyrrolidine-2-carboxamide]
14 | O=C(NCc1cc(F)cc(-c2cnc(C(F)(F)F)nc2)c1)[C@@H]1C[C@@H](F)CN1S(=O)(=O)c1ccc(F)cc1 [Example 91, (2S,4R)-4-fluoro-1-(4-fluorophenyl)sulfonyl-N-[[3-fluoro-5-[2-(trifluoromethyl)pyrimidin-5-yl]phenyl]methyl]pyrrolidine-2-carboxamide]
116 | Cc1cnc(-c2cnc(C(F)(F)F)nc2)cc1CNC(=O)[C@@H]1C[C@@H](F)CN1S(=O)(=O)c1ccc(F)cc1 [Example 169, (2S,4R)-4-fluoro-1-[(4-fluorobenzene)sulfonyl]-N-([5-methyl-2-[2-(trifluoromethyl)pyrimidin-5-yl]pyridin-4-yl]methyl)pyrrolidine-2-carboxamide]
24 | O=C(NCc1ccc(F)c(-c2cnc(C(F)(F)F)cn2)c1)[C@@H]1[C@@H](F)CCN1S(=O)(=O)c1ccc(F)cc1 [Example 97, (2R,3S)-3-fluoro-N-([4-fluoro-3-[5-(trifluoromethyl)pyrazin-2-yl]phenyl]methyl)-1-[(4-fluorobenzene)sulfonyl]pyrrolidine-2-carboxamide]
9 | O=C(NCc1cc(-c2ccc(C(F)(F)F)nc2)ccc1F)[C@@H]1C[C@@H](F)CN1S(=O)(=O)c1ccc(F)cc1 [Example 161, (2S,4R)-4-fluoro-N-(2-fluoro-5-(6-(trifluoromethyl)pyridin-3-yl)benzyl)-1-((4-fluorophenyl)sulfonyl)pyrrolidine-2-carboxamide]

SMILES | IC50 [nM]
C[C@H]1CC[C@@H](C(=O)NCc2cc(-c3ccc(C(F)(F)F)nc3)ncn2)N1S(=O)(=O)c1ccc(F)cc1 [Example 41, (2S,5S)-1-[(4-fluorobenzene)sulfonyl]-5-methyl-N-([6-[6-(trifluoromethyl)pyridin-3-yl]pyrimidin-4-yl]methyl)pyrrolidine-2-carboxamide] | 5
O=C(NCc1cc(N2C3CCC2CC(C(F)(F)F)C3)c(F)cn1)[C@@H]1C[C@@H](F)CN1S(=O)(=O)c1ccc(F)cc1 (stereo partly drawn) [Example 121, (2S,4R)-4-fluoro-N-([5-fluoro-4-[3-(trifluoromethyl)-8-azabicyclo[3.2.1]octan-8-yl]pyridin-2-yl]methyl)-1-[(4-fluorobenzene)sulfonyl]pyrrolidine-2-carboxamide] | 741
